Reference: patent US20250171457A1, “NITROGEN-CONTAINING HETEROCYCLIC COMPOUND HAVING NRF2 ACTIVATION EFFECT” (CHUGAI SEIYAKU KABUSHIKI KAISHA, priority 2022, published 2025)

The compounds below were run on Nrf2 transcriptional activity (pARE-Luc reporter) in HepG2 cells (assay: In vitro Nrf2 transcriptional activity measurement by ARE-dependent reporter assay in HepG2 cell). Conditions: HepG2 cells, pARE-Luc reporter, 4 hours; 100% = Example 1-54 or Example 17-23 at 3.75 μM (repeat print of Table 20-1).
Assay type: cell-based, human
Summary of the method: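 Luminescence readout (Bright-Glo) after 4 h, 37° C compound exposure of HepG2 cells carrying the ARE-luciferase vector pGL4.37. Each well converted to % response versus reference compound at 3.75 μM, and EC50 derived from dose-response curves.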

Compound `Cc1nc(N2CC3(C2)OCC(C)(C)CO3)cc(Cl)c1C(=O)N1COc2c(cccc2-c2cc(N3C4CCC3COC4)c(C(=O)O)cc2F)C1` [Compound 19-9, 4-[3-[4-Chloro-6-(7,7-dimethyl-5,9-dioxa-2-azaspiro[3.5]nonan-2-yl)-2-methylpyridine-3-carbonyl]-2,4-dihydro-1,3-benzoxazin-8-yl]-5-fluoro-2-(3-oxa-8-azabicyclo[3.2.1]octan-8-yl)benzoic acid] has an EC50 of 1.4 nM.

Same assay, conditions: Homo sapiens; HepG2 cells transfected with pARE-Luc, 4 hours at 37° C.; luciferase activity of Example 1-54 or Example 17-23 at 3.75 μM defined as 100%

First: CCc1cc(C(=O)N2COc3c(cccc3-c3cc(N4CCOCC4)c(C(=O)O)cc3F)C2)c(Cl)cc1OC [Compound 18-4, 4-[3-(2-Chloro-5-ethyl-4-methoxybenzoyl)-2,4-dihydro-1,3-benzoxazin-8-yl]-5-fluoro-2-morpholin-4-ylbenzoic acid]
Second: CN1CCN(c2cc(Cl)c(C(=O)N3COc4c(cccc4-c4cc(N5CCCC5)c(C(=O)O)cc4F)C3)c(Cl)c2)CC1 [Compound 18-6, 4-[3-[2,6-Dichloro-4-(4-methylpiperazin-1-yl)benzoyl]-2,4-dihydro-1,3-benzoxazin-8-yl]-5-fluoro-2-pyrrolidin-1-ylbenzoic acid]
The EC50 of the first is 2.7-fold lower: 3.7 nM for the first, 10 nM for the second.

Compared with `Cn1cc(-c2cc(Cl)c(C(=O)N3COc4c(cccc4-c4ccc(C(=O)O)c(N5CCSCC5)c4)C3)c(Cl)c2)cn1` [Compound 18-5, 4-[3-[2,6-Dichloro-4-(1-methylpyrazol-4-yl)benzoyl]-2,4-dihydro-1,3-benzoxazin-8-yl]-2-thiomorpholin-4-ylbenzoic acid], `Cn1cc(-c2cc(Cl)c(C(=O)N3COc4c(ccnc4-c4ccc(C(=O)O)c(N5CCOCC5)c4)C3)c(Cl)c2)cn1` [Compound 18-12, 4-[3-[2,6-Dichloro-4-(1-methylpyrazol-4-yl)benzoyl]-2,4-dihydropyrido[4,3-e][1,3]oxazin-8-yl]-2-morpholin-4-ylbenzoic acid] is 2-fold higher in EC50: 12 nM for the first, 24 nM for the second.

First: COc1cc2c(c(-c3cc(N4C5CCC4COC5)c(C(=O)O)cc3F)c1)OCN(C(=O)c1c(Cl)cc(N3CC(OC)C3)cc1Cl)C2 [Compound 18-7, 4-[3-[2,6-Dichloro-4-(3-methoxyazetidin-1-yl)benzoyl]-6-methoxy-2,4-dihydro-1,3-benzoxazin-8-yl]-5-fluoro-2-(3-oxa-8-azabicyclo[3.2.1]octan-8-yl)benzoic acid]
Second: C[C@@H]1CN(c2cc(F)c(C(=O)N3COc4c(cccc4-c4cc(N5C6CCC5COC6)c(C(=O)O)cc4F)C3)c(Cl)c2)[C@H](C)CN1C [Compound 19-3, 4-[3-[2-Chloro-6-fluoro-4-[(2R,5R)-2,4,5-trimethylpiperazin-1-yl]benzoyl]-2,4-dihydro-1,3-benzoxazin-8-yl]-5-fluoro-2-(3-oxa-8-azabicyclo[3.2.1]octan-8-yl)benzoic acid]
The EC50 of the first is 14-fold higher: 17 nM for the first, 1.2 nM for the second.

Going from `Cn1cc(-c2cc(Cl)c(C(=O)N3CNc4c(cccc4-c4cc(N5CCOCC5)c(C(=O)O)cc4F)C3)c(Cl)c2)cn1` [Compound 18-8, 4-[3-[2,6-Dichloro-4-(1-methylpyrazol-4-yl)benzoyl]-2,4-dihydro-1H-quinazolin-8-yl]-5-fluoro-2-morpholin-4-ylbenzoic acid] to `Cn1cc(-c2cc(Cl)c(C(=O)N3Cc4cccc(-c5cc(N6CCOCC6)c(C(=O)O)cc5F)c4NC3=O)c(Cl)c2)cn1` [Compound 18-9, 4-[3-[2,6-Dichloro-4-(1-methylpyrazol-4-yl)benzoyl]-2-oxo-1,4-dihydroquinazolin-8-yl]-5-fluoro-2-morpholin-4-ylbenzoic acid], the EC50 rises from 2.8 nM to 23 nM (8.2-fold).

Compared with `O=C(O)c1ccc(-c2cccc3c2OCN(C(=O)c2c(Cl)cc(N4CCC(N5CCOCC5)CC4)cc2Cl)C3)nc1N1CCCCC1` [Compound 18-10, 6-[3-[2,6-Dichloro-4-(4-morpholin-4-ylpiperidin-1-yl)benzoyl]-2,4-dihydro-1,3-benzoxazin-8-yl]-2-piperidin-1-ylpyridine-3-carboxylic acid], `Cn1cc(-c2cc(Cl)c(C(=O)N3CCc4c(cccc4-c4ccc(C(=O)O)c(N5CCCCC5)n4)C3)c(Cl)c2)cn1` [Compound 18-11, 6-[2-[2,6-Dichloro-4-(1-methylpyrazol-4-yl)benzoyl]-3,4-dihydro-1H-isoquinolin-5-yl]-2-piperidin-1-ylpyridine-3-carboxylic acid] is 8.6-fold higher in EC50: 36 nM for the first, 310 nM for the second.

Going from `Cc1cc(N2CC3(C2)OCC(C)(C)CO3)cc(C)c1C(=O)N1COc2c(cccc2-c2cc(N3C4CCC3COC4)c(C(=O)O)cc2F)C1` [Compound 19-2, 4-[3-[4-(7,7-Dimethyl-5,9-dioxa-2-azaspiro[3.5]nonan-2-yl)-2,6-dimethylbenzoyl]-2,4-dihydro-1,3-benzoxazin-8-yl]-5-fluoro-2-(3-oxa-8-azabicyclo[3.2.1]octan-8-yl)benzoic acid] to `CC1(C)COC2(CN(c3cc(F)c(C(=O)N4COc5c(cccc5-c5cc(N6C7CCC6COC7)c(C(=O)O)cc5F)C4)c(Cl)c3)C2)OC1` [Compound 19-10, 4-[3-[2-Chloro-4-(7,7-dimethyl-5,9-dioxa-2-azaspiro[3.5]nonan-2-yl)-6-fluorobenzoyl]-2,4-dihydro-1,3-benzoxazin-8-yl]-5-fluoro-2-(3-oxa-8-azabicyclo[3.2.1]octan-8-yl)benzoic acid], the EC50 rises from 1.6 nM to 2.5 nM (1.6-fold).

First: Cc1cc(N2C[C@@H](C)N(C)C[C@H]2C)cc(Cl)c1C(=O)N1COc2c(cccc2-c2cc(N3C4CCC3COC4)c(C(=O)O)cc2F)C1 [Compound 19-4, 4-[3-[2-Chloro-6-methyl-4-[(2R,5R)-2,4,5-trimethylpiperazin-1-yl]benzoyl]-2,4-dihydro-1,3-benzoxazin-8-yl]-5-fluoro-2-(3-oxa-8-azabicyclo[3.2.1]octan-8-yl)benzoic acid]
Second: C[C@@H]1CN(c2cnc(C(=O)N3COc4c(cccc4-c4cc(N5C6CCC5COC6)c(C(=O)O)cc4F)C3)c(Cl)c2)[C@H](C)CN1C [Compound 19-6, 4-[3-[3-Chloro-5-[(2R,5R)-2,4,5-trimethylpiperazin-1-yl]pyridine-2-carbonyl]-2,4-dihydro-1,3-benzoxazin-8-yl]-5-fluoro-2-(3-oxa-8-azabicyclo[3.2.1]octan-8-yl)benzoic acid]
The EC50 of the first is 3.3-fold lower: 1.9 nM for the first, 6.3 nM for the second.

`CC1(C)COC2(CN(c3cc(Cl)c(C(=O)N4COc5c(cccc5-c5cc(N6C7CCC6COC7)c(C(=O)O)cc5F)C4)c(C#N)c3)C2)OC1` [Compound 19-5, 4-[3-[2-Chloro-6-cyano-4-(7,7-dimethyl-5,9-dioxa-2-azaspiro[3.5]nonan-2-yl)benzoyl]-2,4-dihydro-1,3-benzoxazin-8-yl]-5-fluoro-2-(3-oxa-8-azabicyclo[3.2.1]octan-8-yl)benzoic acid] and `C[C@@H]1CN(C)CCN1c1cc(F)c(C(=O)N2COc3c(cccc3-c3cc(N4C5CCC4COC5)c(C(=O)O)cc3F)C2)c(Cl)c1` [Compound 19-7, 4-[3-[2-Chloro-4-[(2R)-2,4-dimethylpiperazin-1-yl]-6-fluorobenzoyl]-2,4-dihydro-1,3-benzoxazin-8-yl]-5-fluoro-2-(3-oxa-8-azabicyclo[3.2.1]octan-8-yl)benzoic acid] are within 1.5-fold of each other in EC50: 2.7 nM for the first, 2.3 nM for the second.

`C[C@@H]1CN(C)CCN1c1ccc(C(=O)N2COc3c(cccc3-c3cc(N4C5CCC4COC5)c(C(=O)O)cc3F)C2)c(Cl)c1` [Compound 19-8, 4-[3-[2-Chloro-4-[(2R)-2,4-dimethylpiperazin-1-yl]benzoyl]-2,4-dihydro-1,3-benzoxazin-8-yl]-5-fluoro-2-(3-oxa-8-azabicyclo[3.2.1]octan-8-yl)benzoic acid] was tested, and the EC50 was 3.9 nM.
